Where two headings read alike, the source gives them in different places.
How the values were obtained:
[1] = tested on: BaF3/ITD cells; assay: MTT growth inhibition assay, BaF3 FLT3-ITD cells; format: cell-based; conditions: no IL-3, 48 h, read-out: Proliferation IC50
Method: (§1) Figure 1 Growth of AL mutants in the presence of FLT3 TKI The BaF3 AL mutants were grown in the absence of IL-3 and analyzed by treatment in increasing concentrations of FLT3 TKI for 48 hours, after which growth inhibition was assessed using the MTT assay. Means are representative of at least three independent experiments.
(§2) The cells were grown in the absence of IL3 and analyzed by treatment in increasing concentrations of FLT3 TKI for 48 hours, after which growth inhibition was assessed using the MTT assay. Each experiment was performed at least three times and representative results are shown.
(§3) Based on Trypan Blue exclusion, 2 × 10^4 viable cells were seeded in quadruplicate in a 96-well microtiter plate in the presence or absence of inhibitor for 48 h. The effect of drug activity on cell viability was measured using the 3-(4,5-Dimethylthiazol-2-yl)-2,5-diphenyltetrazolium bromide (MTT) assay according to the manufacturer's instructions (Roche Applied Science, Indianapolis, IN, USA). Following treatment, cells were incubated for 4 h in MTT followed by dissolution in solubilization buffer overnight. Absorbance was measured at 570 nm on a Bio-Rad plate reader (Hercules, CA, USA). […] Results shown are presented as means and are representative of at least three independent experiments.

[2] = tested on: BaF3 FLT3 D835Y mutant cells; assay: MTT growth inhibition assay, BaF3 FLT3 D835Y cells; format: cell-based; conditions: no IL-3, 48 h, read-out: Proliferation IC50
Method: as §1, §2, §3

[3] = tested on: BaF3 FLT3 D835A mutant cells; assay: MTT growth inhibition assay, BaF3 FLT3 D835A cells; format: cell-based; conditions: BaF3 FLT3 D835A, no IL-3, 48 h, MTT, read-out: Proliferation IC50
Method: as §1, §2, §3

[4] = tested on: BaF3 FLT3 D835G mutant cells; assay: MTT growth inhibition assay, BaF3 FLT3 D835G cells; format: cell-based; conditions: no IL-3, 48 h, read-out: Proliferation IC50
Method: as §1, §2, §3

[5] = tested on: BaF3 FLT3 D835N mutant cells; assay: MTT growth inhibition assay, BaF3 FLT3 D835N cells; format: cell-based; conditions: no IL-3, 48 h, read-out: Proliferation IC50
Method: as §1, §2, §3

[6] = tested on: BaF3 FLT3 D835L+K mutant cells; assay: MTT growth inhibition assay, BaF3 FLT3 D835L+K cells; format: cell-based; conditions: no IL-3, 48 h, read-out: Proliferation IC50
Method: as §1, §2, §3

[7] = tested on: BaF3 FLT3 I836L+D mutant cells; assay: MTT growth inhibition assay, BaF3 FLT3 I836L+D cells; format: cell-based; conditions: no IL-3, 48 h, read-out: Proliferation IC50
Method: as §1, §2, §3

[8] = tested on: BaF3 FLT3 I836S mutant cells; assay: MTT growth inhibition assay, BaF3 FLT3 I836S cells; format: cell-based; conditions: BaF3 FLT3 I836S, no IL-3, 48 h, MTT, read-out: Proliferation IC50
Method: as §1, §2, §3

[9] = tested on: BaF3 FLT3 I836T mutant cells; assay: MTT growth inhibition assay, BaF3 FLT3 I836T cells; format: cell-based; conditions: no IL-3, 48 h, read-out: Proliferation IC50
Method: as §1, §2, §3

[10] = tested on: BaF3 FLT3 840G+S mutant cells; assay: MTT growth inhibition assay, BaF3 FLT3 840G+S cells; format: cell-based; conditions: no IL-3, 48 h, read-out: Proliferation IC50
Method: as §1, §2, §3

[11] = tested on: BaF3 FLT3 D593D mutant cells; assay: MTT growth inhibition assay, BaF3 FLT3 D593D cells; format: cell-based; conditions: no IL-3, 48 h, read-out: Proliferation IC50
Method: as §1, §2, §3

[12] = target: T1, FLT3 D835Y (Homo sapiens, UniProt P36888, D835Y); assay: FLT3 autophosphorylation, immunoprecipitation/Western blot, D835Y; format: cell-based; conditions: FLT3 D835Y cells, highest concentrations tested, 1 h
T1 construct: expressed in transfected cells; host or cells: BaF3
T1 sequence (P36888 27-993 D835Y): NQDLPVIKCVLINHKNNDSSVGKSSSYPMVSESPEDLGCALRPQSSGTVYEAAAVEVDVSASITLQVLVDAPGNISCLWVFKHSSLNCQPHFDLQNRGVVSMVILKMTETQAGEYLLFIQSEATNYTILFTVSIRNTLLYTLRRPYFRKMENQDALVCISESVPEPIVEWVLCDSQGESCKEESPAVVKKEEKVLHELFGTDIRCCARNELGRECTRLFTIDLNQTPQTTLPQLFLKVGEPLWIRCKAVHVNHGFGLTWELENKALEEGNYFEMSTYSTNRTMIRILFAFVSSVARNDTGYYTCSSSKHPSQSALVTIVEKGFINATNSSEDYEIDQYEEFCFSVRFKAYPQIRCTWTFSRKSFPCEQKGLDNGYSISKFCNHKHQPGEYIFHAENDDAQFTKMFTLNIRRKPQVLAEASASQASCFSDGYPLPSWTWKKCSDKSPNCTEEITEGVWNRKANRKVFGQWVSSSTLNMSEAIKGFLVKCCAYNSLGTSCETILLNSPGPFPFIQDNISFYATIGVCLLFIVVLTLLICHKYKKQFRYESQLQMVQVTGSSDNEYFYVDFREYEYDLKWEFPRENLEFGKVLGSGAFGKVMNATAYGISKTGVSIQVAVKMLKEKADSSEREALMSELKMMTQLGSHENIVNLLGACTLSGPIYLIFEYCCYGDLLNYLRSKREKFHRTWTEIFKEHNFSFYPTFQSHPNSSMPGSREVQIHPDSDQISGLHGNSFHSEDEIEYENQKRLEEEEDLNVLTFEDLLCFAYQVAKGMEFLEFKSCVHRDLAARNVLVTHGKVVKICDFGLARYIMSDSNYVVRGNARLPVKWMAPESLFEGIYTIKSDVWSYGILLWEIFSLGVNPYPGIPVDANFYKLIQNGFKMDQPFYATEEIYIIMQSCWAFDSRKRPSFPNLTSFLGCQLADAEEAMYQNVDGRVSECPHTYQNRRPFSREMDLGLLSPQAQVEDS
Method: Activated FLT3 expression was measured by performing immunoprecipitation, SDS-PAGE and Western blotting as previously described. Specifically, 10^7 cells were washed in medium and treated with inhibitor for 1 h followed by stimulation with 25 ng/ml of FLT3 ligand for 15 minutes where indicated. Cells were washed twice with ice-cold PBS and lysed in 300 µl of NP-40 lysis buffer (150 mM NaCl, 20 mM TrisHCl (pH7.4), 10% glycerol, 1% NP-40, 10 mM EDTA, 100 mM NaF) with 2 mM Na3VO4 and protease inhibitors (Complete Tablets, Roche, Mannheim, Germany) at 4°C for 30 m. Cell lysate was harvested by centrifugation at 13,000 × g for 30 m at 4°C. FLT3 S-18 antibody was incubated with 500 µg lysate overnight at 4°C followed by immunoprecipitation with protein A-agarose beads for 2 h. Beads were washed once in Tris buffered saline with 1% Tween-20 (TBST) and twice in TBS. Samples were boiled in sodium dodecyl sulfate (SDS) sample buffer prior to separating in a 8% SDS-polyacrylamide gel (SDS-PAGE). Proteins were transferred to a polyvinyl diflouride (PVDF) membrane (Millipore, Bedford, MA, USA) and detected by 4G10 phosphotyrosine antibody and anti-FLT3 S-18 antibody. FLT3 was visualized using the Odyssey Infra Red Imaging System from Li-Cor (Lincoln, NE, USA) using AlexaFluor 680 goat anti-mouse and AlexaFluor 800 goat anti-rabbit antibodies. […]

[13] = tested on: FLT3/ITD; assay: FLT3/ITD autophosphorylation and signaling pathways, Western blot; format: cell-based; conditions: FLT3/ITD cells, 1 h, concentration-dependent
Method: Activated FLT3 expression was measured by performing immunoprecipitation, SDS-PAGE and Western blotting as previously described. Specifically, 10^7 cells were washed in medium and treated with inhibitor for 1 h followed by stimulation with 25 ng/ml of FLT3 ligand for 15 minutes where indicated. Cells were washed twice with ice-cold PBS and lysed in 300 µl of NP-40 lysis buffer (150 mM NaCl, 20 mM TrisHCl (pH7.4), 10% glycerol, 1% NP-40, 10 mM EDTA, 100 mM NaF) with 2 mM Na3VO4 and protease inhibitors (Complete Tablets, Roche, Mannheim, Germany) at 4°C for 30 m. Cell lysate was harvested by centrifugation at 13,000 × g for 30 m at 4°C. FLT3 S-18 antibody was incubated with 500 µg lysate overnight at 4°C followed by immunoprecipitation with protein A-agarose beads for 2 h. Beads were washed once in Tris buffered saline with 1% Tween-20 (TBST) and twice in TBS. Samples were boiled in sodium dodecyl sulfate (SDS) sample buffer prior to separating in a 8% SDS-polyacrylamide gel (SDS-PAGE). Proteins were transferred to a polyvinyl diflouride (PVDF) membrane (Millipore, Bedford, MA, USA) and detected by 4G10 phosphotyrosine antibody and anti-FLT3 S-18 antibody. FLT3 was visualized using the Odyssey Infra Red Imaging System from Li-Cor (Lincoln, NE, USA) using AlexaFluor 680 goat anti-mouse and AlexaFluor 800 goat anti-rabbit antibodies. Phosphorylation of the FLT3 downstream signaling mediators, STAT5, AKT and MAP kinase was investigated by loading 50 µg of whole cell lysate and probing with the indicated antibodies. The membrane was washed and incubated in goat anti-rabbit secondary antibody conjugated to horseradish peroxidase followed by enhanced chemiluminescence (ECL). The membrane was subsequently stripped in 200 mM glycine buffer, pH 2.5 with 0.1% Tween-20 and reprobed for STAT5, AKT and MAP kinase expression using the respective antibodies.

[14] = tested on: BaF3 FLT3 D835Y cells; assay: Engraftment of BaF3 D835Y luciferase cells in BALB/c mice, bioluminescence imaging; format: in vivo; conditions: 10 mg/kg once daily oral gavage, day 5 to day 9
Method: On day 5 following transplantation, the level of engraftment was assessed by imaging mice for bioluminescence on an IVIS Spectrum imager. […] This experiment was repeated three times.
Cells were sorted for GFP and CD135 expression on a FACS AriaII cytometer using FACSDiva software. For engraftment, 2 ×10^6 cells were injected via tail vein into BALB/c mice (Jackson Laboratories, Bar Harbor, ME, USA) (day 0). […] [36, 37] […] Mice were imaged by intraperitoneal injection of luciferin (3 mg) and visualizing on an IVIS Spectrum imager (Caliper LifeSciences, Hopkinton, MA, USA) using Living Image software for analysis on day 5 following inoculation to monitor engraftment and on day 9 to assess drug effect. All animal procedures were conducted in accordance with the policy of the Johns Hopkins University School of Medicine Animal Care and Use Committee.

Row | IC50 [1] [µM] | IC50 [2] [µM] | IC50 [3] [µM] | IC50 [4] [µM] | IC50 [5] [µM] | IC50 [6] [µM] | IC50 [7] [µM] | IC50 [8] [µM] | IC50 [9] [µM] | IC50 [10] [µM] | IC50 [11] [µM] | IC50 ([1]; Mus musculus) [µM] | IC50 ([2]; Mus musculus) [µM] | IC50 ([3]; Mus musculus) [µM] | IC50 ([4]; Mus musculus) [µM] | IC50 ([5]; Mus musculus) [µM] | IC50 ([6]; Mus musculus) [µM] | IC50 ([7]; Mus musculus) [µM] | IC50 ([8]; Mus musculus) [µM] | IC50 ([10]; Mus musculus) [µM] | SMILES | other results
1 | 0.166 | > 0.2 | > 0.2 | 0.141 | 0.153 | > 0.2 | > 0.2 | > 0.2 | 0.152 | > 0.2 | > 0.2 |  |  |  |  |  |  |  |  |  | COc1cc(Nc2ncc(F)c(Nc3ccc4c(n3)NC(=O)C(C)(C)O4)n2)cc(OC)c1OC [R406] | 
2 |  |  |  |  |  |  |  |  |  |  |  | 0.0185 | > 2 | > 0.2 | 0.0345 | 0.0316 | > 0.2 | > 0.2 | 0.0102 | 0.005 | CNC(=O)c1cc(Oc2ccc(NC(=O)Nc3ccc(Cl)c(C(F)(F)F)c3)cc2)ccn1 [Sorafenib] | IC50 ([9]; Mus musculus): 0.0482 µM; IC50 ([11]; Mus musculus): > 0.2 µM; Inhibition of FLT3 autophosphorylation [12]: markedly reduced or absent inhibition; Inhibition of FLT3 autophosphorylation and phosphorylation of STAT5, AKT and Map kinase [13]: inhibited FLT3 autophosphorylation; Leukemic burden (bioluminescence) on day 9 [14]: clear progression of leukemia
3 |  |  |  |  |  |  |  |  |  |  |  | 0.0054 | > 0.1 | > 0.2 | 0.0481 | 0.0464 | > 0.2 | > 0.2 | > 0.2 | 0.004 | CCN(CC)CCNC(=O)c1c(C)[nH]c(/C=C2\C(=O)Nc3ccc(F)cc32)c1C [Sunitinib] | IC50 ([11]; Mus musculus): > 0.2 µM
4 | < 0.001 | 0.0041 | 0.0013 | < 0.001 | < 0.001 | 0.0067 | 0.0117 | 0.009 | 0.0097 | < 0.001 | 0.0028 |  |  |  |  |  |  |  |  |  | CNC(=O)[C@@]1(N)C[C@H]2O[C@]1(C)n1c3ccccc3c3c4c(c5c6ccccc6n2c5c31)C(=O)NC4 [TTT-3002] | 
